Source: the NIST ThermoML archive (doi:10.1016/j.jct.2008.12.014)
± gives the expanded uncertainty stated by the source.

Conditions: Liquid, Vibrating tube method

## CC(C)O [propan-2-ol]
280.21 K, 117.9 kPa
  mass density: 797.61 ± 0.15 kg/m3
280.21 K, 439.6 kPa
  mass density: 797.89 ± 0.15 kg/m3
280.21 K, 938.7 kPa
  mass density: 798.29 ± 0.16 kg/m3
280.21 K, 1328.4 kPa
  mass density: 798.62 ± 0.16 kg/m3
280.21 K, 1656.6 kPa
  mass density: 798.89 ± 0.16 kg/m3
280.21 K, 1944.9 kPa
  mass density: 799.14 ± 0.17 kg/m3
280.21 K, 2440.6 kPa
  mass density: 799.56 ± 0.17 kg/m3
280.21 K, 2850.6 kPa
  mass density: 799.88 ± 0.18 kg/m3
280.21 K, 3198 kPa
  mass density: 800.17 ± 0.18 kg/m3
280.21 K, 3679.1 kPa
  mass density: 800.56 ± 0.18 kg/m3
280.21 K, 4071.1 kPa
  mass density: 800.9 ± 0.19 kg/m3
280.21 K, 4437.7 kPa
  mass density: 801.19 ± 0.19 kg/m3
280.21 K, 4832.6 kPa
  mass density: 801.5 ± 0.19 kg/m3
280.21 K, 5182.1 kPa
  mass density: 801.8 ± 0.2 kg/m3
280.21 K, 5559.1 kPa
  mass density: 802.1 ± 0.2 kg/m3
280.21 K, 5910 kPa
  mass density: 802.39 ± 0.2 kg/m3
280.21 K, 6334.9 kPa
  mass density: 802.73 ± 0.21 kg/m3
280.21 K, 6750.9 kPa
  mass density: 803.06 ± 0.21 kg/m3
280.21 K, 7592 kPa
  mass density: 803.74 ± 0.22 kg/m3
280.21 K, 7999 kPa
  mass density: 804.07 ± 0.22 kg/m3
280.21 K, 8329 kPa
  mass density: 804.33 ± 0.23 kg/m3
280.21 K, 8817 kPa
  mass density: 804.7 ± 0.23 kg/m3
280.21 K, 9350.6 kPa
  mass density: 805.11 ± 0.24 kg/m3
280.21 K, 9658.5 kPa
  mass density: 805.38 ± 0.24 kg/m3
281.21 K, 7166.5 kPa
  mass density: 803.39 ± 0.22 kg/m3
300.09 K, 186.7 kPa
  mass density: 780.22 ± 0.16 kg/m3
300.09 K, 610.5 kPa
  mass density: 780.62 ± 0.16 kg/m3
300.09 K, 953.4 kPa
  mass density: 780.94 ± 0.17 kg/m3
300.09 K, 1339.5 kPa
  mass density: 781.31 ± 0.17 kg/m3
300.09 K, 1722.1 kPa
  mass density: 781.66 ± 0.18 kg/m3
300.09 K, 2044.8 kPa
  mass density: 781.96 ± 0.18 kg/m3
300.09 K, 2446.4 kPa
  mass density: 782.34 ± 0.18 kg/m3
300.09 K, 2834.6 kPa
  mass density: 782.7 ± 0.19 kg/m3
300.09 K, 3224.9 kPa
  mass density: 783.06 ± 0.19 kg/m3
300.09 K, 3671.1 kPa
  mass density: 783.47 ± 0.2 kg/m3
300.09 K, 4074.1 kPa
  mass density: 783.84 ± 0.2 kg/m3
300.09 K, 4362.5 kPa
  mass density: 784.11 ± 0.2 kg/m3
300.09 K, 4771.8 kPa
  mass density: 784.48 ± 0.21 kg/m3
300.09 K, 5226.5 kPa
  mass density: 784.89 ± 0.21 kg/m3
300.09 K, 5579.2 kPa
  mass density: 785.21 ± 0.21 kg/m3
300.09 K, 6001.6 kPa
  mass density: 785.59 ± 0.22 kg/m3
300.09 K, 6427.2 kPa
  mass density: 785.98 ± 0.22 kg/m3
300.09 K, 6780.3 kPa
  mass density: 786.29 ± 0.23 kg/m3
300.09 K, 7214.7 kPa
  mass density: 786.68 ± 0.23 kg/m3
300.09 K, 7629.9 kPa
  mass density: 787.05 ± 0.23 kg/m3
300.09 K, 8020.3 kPa
  mass density: 787.4 ± 0.24 kg/m3
300.09 K, 8417.5 kPa
  mass density: 787.75 ± 0.24 kg/m3
300.09 K, 8805.7 kPa
  mass density: 788.1 ± 0.25 kg/m3
300.09 K, 9212.9 kPa
  mass density: 788.45 ± 0.25 kg/m3
300.09 K, 9621.5 kPa
  mass density: 788.81 ± 0.25 kg/m3
325.12 K, 202.7 kPa
  mass density: 757.05 ± 0.17 kg/m3
325.12 K, 609.4 kPa
  mass density: 757.49 ± 0.18 kg/m3
325.12 K, 960 kPa
  mass density: 757.87 ± 0.18 kg/m3
325.12 K, 1253.9 kPa
  mass density: 758.21 ± 0.18 kg/m3
325.12 K, 1638.8 kPa
  mass density: 758.63 ± 0.19 kg/m3
325.12 K, 2021 kPa
  mass density: 759.06 ± 0.19 kg/m3
325.12 K, 2328.8 kPa
  mass density: 759.39 ± 0.2 kg/m3
325.12 K, 3014.9 kPa
  mass density: 760.15 ± 0.2 kg/m3
325.12 K, 3321.4 kPa
  mass density: 760.48 ± 0.21 kg/m3
325.12 K, 3659.4 kPa
  mass density: 760.85 ± 0.21 kg/m3
325.12 K, 4004.1 kPa
  mass density: 761.22 ± 0.21 kg/m3
325.12 K, 4399.2 kPa
  mass density: 761.65 ± 0.22 kg/m3
325.12 K, 4691.2 kPa
  mass density: 761.97 ± 0.22 kg/m3
325.12 K, 5010.7 kPa
  mass density: 762.32 ± 0.23 kg/m3
325.12 K, 5383.4 kPa
  mass density: 762.71 ± 0.23 kg/m3
325.12 K, 5730.5 kPa
  mass density: 763.08 ± 0.23 kg/m3
325.12 K, 6143.6 kPa
  mass density: 763.52 ± 0.24 kg/m3
325.12 K, 6525.6 kPa
  mass density: 763.91 ± 0.24 kg/m3
325.12 K, 6903.2 kPa
  mass density: 764.31 ± 0.25 kg/m3
325.12 K, 7293.8 kPa
  mass density: 764.72 ± 0.25 kg/m3
325.12 K, 7661.9 kPa
  mass density: 765.11 ± 0.25 kg/m3
325.12 K, 7918.6 kPa
  mass density: 765.38 ± 0.26 kg/m3
325.12 K, 8254.4 kPa
  mass density: 765.72 ± 0.26 kg/m3
325.12 K, 8755.5 kPa
  mass density: 766.24 ± 0.27 kg/m3
325.15 K, 2655.8 kPa
  mass density: 759.75 ± 0.2 kg/m3
350.14 K, 220.4 kPa
  mass density: 731.92 ± 0.18 kg/m3
350.14 K, 663.4 kPa
  mass density: 732.49 ± 0.19 kg/m3
350.14 K, 1071.2 kPa
  mass density: 733.03 ± 0.19 kg/m3
350.14 K, 1412.6 kPa
  mass density: 733.49 ± 0.2 kg/m3
350.14 K, 1844.7 kPa
  mass density: 734.07 ± 0.2 kg/m3
350.14 K, 2226.7 kPa
  mass density: 734.58 ± 0.21 kg/m3
350.14 K, 2644.7 kPa
  mass density: 735.11 ± 0.21 kg/m3
350.14 K, 2842.7 kPa
  mass density: 735.41 ± 0.22 kg/m3
350.14 K, 3286.9 kPa
  mass density: 735.99 ± 0.22 kg/m3
350.14 K, 3630.7 kPa
  mass density: 736.45 ± 0.23 kg/m3
350.14 K, 4012.2 kPa
  mass density: 736.94 ± 0.23 kg/m3
350.14 K, 4394.6 kPa
  mass density: 737.43 ± 0.24 kg/m3
350.14 K, 4757.6 kPa
  mass density: 737.91 ± 0.24 kg/m3
350.14 K, 5197.9 kPa
  mass density: 738.48 ± 0.25 kg/m3
350.14 K, 5577.9 kPa
  mass density: 738.96 ± 0.25 kg/m3
350.14 K, 5939.3 kPa
  mass density: 739.42 ± 0.25 kg/m3
350.14 K, 6321.3 kPa
  mass density: 739.89 ± 0.26 kg/m3
350.14 K, 6730.9 kPa
  mass density: 740.41 ± 0.26 kg/m3
350.14 K, 7119.7 kPa
  mass density: 740.89 ± 0.27 kg/m3
350.14 K, 7564.4 kPa
  mass density: 741.45 ± 0.27 kg/m3
350.14 K, 7988.5 kPa
  mass density: 741.97 ± 0.28 kg/m3
350.14 K, 8472.5 kPa
  mass density: 742.55 ± 0.28 kg/m3
350.14 K, 8925.8 kPa
  mass density: 743.13 ± 0.29 kg/m3
350.14 K, 9280.8 kPa
  mass density: 743.56 ± 0.29 kg/m3
350.14 K, 9676.3 kPa
  mass density: 744.05 ± 0.3 kg/m3
375.01 K, 349.5 kPa
  mass density: 702.23 ± 0.2 kg/m3
375.01 K, 703.3 kPa
  mass density: 702.82 ± 0.21 kg/m3
375.01 K, 1046.8 kPa
  mass density: 703.38 ± 0.21 kg/m3
375.01 K, 1437.5 kPa
  mass density: 704.01 ± 0.22 kg/m3
375.01 K, 1791.6 kPa
  mass density: 704.58 ± 0.22 kg/m3
375.01 K, 2161.7 kPa
  mass density: 705.16 ± 0.23 kg/m3
375.01 K, 2545.7 kPa
  mass density: 705.76 ± 0.23 kg/m3
375.01 K, 2909.9 kPa
  mass density: 706.34 ± 0.24 kg/m3
375.01 K, 3364.1 kPa
  mass density: 707.04 ± 0.24 kg/m3
375.01 K, 3677.6 kPa
  mass density: 707.53 ± 0.25 kg/m3
375.01 K, 4083.2 kPa
  mass density: 708.16 ± 0.25 kg/m3
375.01 K, 4515.7 kPa
  mass density: 708.82 ± 0.26 kg/m3
375.01 K, 4853.5 kPa
  mass density: 709.33 ± 0.26 kg/m3
375.01 K, 5280.2 kPa
  mass density: 709.98 ± 0.27 kg/m3
375.01 K, 5646.9 kPa
  mass density: 710.53 ± 0.27 kg/m3
375.01 K, 6138.1 kPa
  mass density: 711.26 ± 0.28 kg/m3
375.01 K, 6447.1 kPa
  mass density: 711.73 ± 0.28 kg/m3
375.01 K, 6880.9 kPa
  mass density: 712.37 ± 0.29 kg/m3
375.01 K, 7269.8 kPa
  mass density: 712.94 ± 0.3 kg/m3
375.01 K, 7772.4 kPa
  mass density: 713.68 ± 0.3 kg/m3
375.01 K, 8119.2 kPa
  mass density: 714.18 ± 0.31 kg/m3
375.01 K, 8557.2 kPa
  mass density: 714.81 ± 0.31 kg/m3
375.01 K, 8987.3 kPa
  mass density: 715.42 ± 0.32 kg/m3
375.01 K, 9423.8 kPa
  mass density: 716.04 ± 0.32 kg/m3
375.01 K, 9842.2 kPa
  mass density: 716.64 ± 0.33 kg/m3
392.57 K, 407.6 kPa
  mass density: 679.26 ± 0.22 kg/m3
392.57 K, 888.7 kPa
  mass density: 680.18 ± 0.22 kg/m3
392.57 K, 1171.4 kPa
  mass density: 680.72 ± 0.23 kg/m3
392.57 K, 1526.6 kPa
  mass density: 681.39 ± 0.23 kg/m3
392.57 K, 1897.4 kPa
  mass density: 682.08 ± 0.24 kg/m3
392.57 K, 2272.3 kPa
  mass density: 682.77 ± 0.24 kg/m3
392.57 K, 2619.1 kPa
  mass density: 683.41 ± 0.25 kg/m3
392.57 K, 3050.4 kPa
  mass density: 684.2 ± 0.25 kg/m3
392.57 K, 3411.2 kPa
  mass density: 684.86 ± 0.26 kg/m3
392.57 K, 3835 kPa
  mass density: 685.63 ± 0.27 kg/m3
392.57 K, 4095.7 kPa
  mass density: 686.12 ± 0.27 kg/m3
392.57 K, 4524.9 kPa
  mass density: 686.89 ± 0.28 kg/m3
392.57 K, 4902.8 kPa
  mass density: 687.57 ± 0.28 kg/m3
392.57 K, 5283.5 kPa
  mass density: 688.24 ± 0.29 kg/m3
392.57 K, 5775.9 kPa
  mass density: 689.09 ± 0.29 kg/m3
392.57 K, 6039.6 kPa
  mass density: 689.55 ± 0.3 kg/m3
392.57 K, 6476.6 kPa
  mass density: 690.3 ± 0.3 kg/m3
392.57 K, 6889.7 kPa
  mass density: 691.01 ± 0.31 kg/m3
392.57 K, 7348 kPa
  mass density: 691.78 ± 0.32 kg/m3
392.57 K, 7728 kPa
  mass density: 692.42 ± 0.32 kg/m3
392.57 K, 8172.7 kPa
  mass density: 693.17 ± 0.33 kg/m3
392.57 K, 8598.3 kPa
  mass density: 693.88 ± 0.33 kg/m3
392.57 K, 9018.5 kPa
  mass density: 694.57 ± 0.34 kg/m3
392.57 K, 9405 kPa
  mass density: 695.2 ± 0.34 kg/m3
392.57 K, 9837.9 kPa
  mass density: 695.89 ± 0.35 kg/m3
